SMILES strings stand for the structures. Bounds are passed on as bounds.

By relative IC50 is commonly meant the concentration at the midpoint between the plateaus of the fitted inhibition curve.

What all share (assay): relative IC50 (inflection point of fitted viability curve, relative to fitted max inhibition); higher = less sensitive
Holding throughout (conditions): 72 h

One experiment relates to DERL-7 (IL-2 2.5 ng/mL). The protocol: (§1)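 Drug sensitivity and resistance testing: 5 concentrations over a 10,000-fold range, 72 h at 37 °C, viability by CellTiter-Glo normalised to DMSO and benzethonium chloride controls. IC50 is the inflection point of a logistic fit (min fixed at 0, max fitted), so it is relative to the fitted maximal inhibition. Kept only where fitted max inhibition is at least 50%.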

Another experiment deals with IMC-1 (IL-2 20 ng/mL). Here is the method: as §1
A further experiment relates to KAI3 (IL-2 2.5 ng/mL). Here is the method:
as §1

The next experiment relates to KHYG-1 (IL-2 2.5 ng/mL). The protocol:
as §1

Another experiment has as its system NK-92 (IL-2 2.5 ng/mL). The protocol: as §1
The next experiment has as its system NK-YS (IL-2 2.5 ng/mL). Here is the method: as §1
Another experiment deals with NKL (IL-2 2.5 ng/mL). The protocol:
as §1

Another experiment relates to SNK-6 (IL-2 2.5 ng/mL). Here is the method:
as §1

In a further experiment the test system is YT (IL-2 2.5 ng/mL). Here is the method:
as §1

Experiment [1] concerns normal primary NK cells, pool 1 (3 donors) (IL-2 2.5 ng/mL). Here is the method:
as §1

Experiment [2] concerns normal primary NK cells, pool 1 (3 donors), resting (IL-2 0 ng/mL). The protocol: as §1
Experiment [3] deals with normal primary NK cells, pool 2 (3 donors) (IL-2 2.5 ng/mL). Here is the method: as §1
In experiment [4] the test system is normal primary NK cells, pool 3 (3 donors) (IL-2 2.5 ng/mL). Here is the method:
as §1

Turning to `CCCc1cc(C)[nH]c(=O)c1CNC(=O)c1cc(-c2ccnc(N3CCN(C)CC3)c2)cc2c1cnn2C(C)C` [GSK343], the “relative IC50” value in the experiment with DERL-7 (IL-2 2.5 ng/mL) stood at 2420 nM; in the experiment with IMC-1 (IL-2 20 ng/mL), 3630 nM; with KAI3 (IL-2 2.5 ng/mL), 2480 nM; in the experiment on KHYG-1 (IL-2 2.5 ng/mL), 2880 nM; with NK-92 (IL-2 2.5 ng/mL), 3190 nM; in the experiment with NK-YS (IL-2 2.5 ng/mL), 2780 nM. In addition, the “relative IC50” value was 3350 nM in the experiment with NKL (IL-2 2.5 ng/mL); 3520 nM with SNK-6 (IL-2 2.5 ng/mL); 2890 nM in the experiment on YT (IL-2 2.5 ng/mL); 2470 nM in experiment [1]; 2240 nM in experiment [2]; more than 10000 nM in [3]. The “relative IC50” value in experiment [4] was found to be 3690 nM.
Consider `CCc1cnn2c(NCc3ccc[n+]([O-])c3)cc(N3CCCC[C@H]3CCO)nc12` [Dinaciclib], for which the “relative IC50” value in the experiment with DERL-7 (IL-2 2.5 ng/mL) stood at 13.7 nM; in the experiment with IMC-1 (IL-2 20 ng/mL) it was 11 nM; in the experiment with KAI3 (IL-2 2.5 ng/mL), 8.92 nM; with KHYG-1 (IL-2 2.5 ng/mL), 11.3 nM; in the experiment on NK-92 (IL-2 2.5 ng/mL), 7.4 nM; in the experiment on NK-YS (IL-2 2.5 ng/mL) it was 4.68 nM. Moreover, the “relative IC50” value with NKL (IL-2 2.5 ng/mL) turned out to be 4.24 nM; in the experiment with SNK-6 (IL-2 2.5 ng/mL), 4.4 nM; in the experiment on YT (IL-2 2.5 ng/mL), 3.6 nM; in experiment [1] it was 10.9 nM; in experiment [2], 16.4 nM; in experiment [3] it was 3.72 nM. For the same molecule, the “relative IC50” value in experiment [4] came to 6.24 nM.
Consider `CN(C)CCN1C(=O)c2cccc3cc(N)cc(c23)C1=O` [Amonafide], for which the “relative IC50” value with DERL-7 (IL-2 2.5 ng/mL) amounted to 1760 nM; in the experiment with IMC-1 (IL-2 20 ng/mL) it was 1940 nM; in the experiment on KAI3 (IL-2 2.5 ng/mL), 1280 nM; with KHYG-1 (IL-2 2.5 ng/mL), 1970 nM; in the experiment on NK-92 (IL-2 2.5 ng/mL) it was 1400 nM; with NK-YS (IL-2 2.5 ng/mL), 1380 nM. Besides, the “relative IC50” value in the experiment with NKL (IL-2 2.5 ng/mL) was found to be 1240 nM; with SNK-6 (IL-2 2.5 ng/mL), 1700 nM; in the experiment on YT (IL-2 2.5 ng/mL), 2140 nM; in experiment [1] it was 3500 nM; in experiment [2], 2250 nM; in [3] it was 2650 nM. The “relative IC50” value in experiment [4] is 2410 nM.
In the case of `CC(=O)OC[C@H]1O[C@@H]([S-])[C@H](OC(C)=O)[C@@H](OC(C)=O)[C@@H]1OC(C)=O.CCP(CC)CC.[Au+]` [Auranofin], the “relative IC50” value was 274 nM with DERL-7 (IL-2 2.5 ng/mL); 761 nM with IMC-1 (IL-2 20 ng/mL); 859 nM in the experiment on KAI3 (IL-2 2.5 ng/mL); 507 nM with KHYG-1 (IL-2 2.5 ng/mL); 791 nM in the experiment on NK-92 (IL-2 2.5 ng/mL); 551 nM in the experiment with NK-YS (IL-2 2.5 ng/mL). In addition, the “relative IC50” value worked out at 241 nM in the experiment with NKL (IL-2 2.5 ng/mL); 319 nM in the experiment with SNK-6 (IL-2 2.5 ng/mL); 824 nM with YT (IL-2 2.5 ng/mL); 53.6 nM in experiment [1]; 26.1 nM in experiment [2]; 102 nM in experiment [3]. In experiment [4], the “relative IC50” value was 78.4 nM.
On to `Cc1c(N)nc([C@H](CC(N)=O)NC[C@H](N)C(N)=O)nc1C(=O)N[C@H](C(=O)N[C@H](C)[C@@H](O)[C@H](C)C(=O)N[C@H](C(=O)NCCc1nc(-c2nc(C(=O)NCCC[S+](C)C)cs2)cs1)[C@@H](C)O)[C@@H](OC1OC(CO)C(O)C(O)C1OC1OC(CO)C(O)C(OC(N)=O)C1O)c1cnc[nH]1` (stereo not given in full) [Bleomycin], for which the “relative IC50” value in the experiment on DERL-7 (IL-2 2.5 ng/mL) was 1220 nM; with IMC-1 (IL-2 20 ng/mL), 1480 nM; in the experiment with KAI3 (IL-2 2.5 ng/mL) it was 537 nM; in the experiment with KHYG-1 (IL-2 2.5 ng/mL) it was 2270 nM; with NK-92 (IL-2 2.5 ng/mL) it was 662 nM; in the experiment on NK-YS (IL-2 2.5 ng/mL), 635 nM. The “relative IC50” value was 1150 nM with NKL (IL-2 2.5 ng/mL); 41.8 nM in the experiment on SNK-6 (IL-2 2.5 ng/mL); 1530 nM with YT (IL-2 2.5 ng/mL); 2140 nM in experiment [1]; 3560 nM in experiment [2]; 1510 nM in experiment [3]. Further, in experiment [4], the “relative IC50” value was 1150 nM.
With `C[C@@H]1CN(CC(=O)Nc2ccc3c(c2)Cc2cccc(-c4cc(=O)cc(N5CCOCC5)o4)c2S3)C[C@H](C)O1`, the “relative IC50” value with DERL-7 (IL-2 2.5 ng/mL) was found to be 4940 nM; in the experiment with IMC-1 (IL-2 20 ng/mL), 7360 nM; with KAI3 (IL-2 2.5 ng/mL), 4210 nM; in the experiment on KHYG-1 (IL-2 2.5 ng/mL) it was 4430 nM; in the experiment with NK-92 (IL-2 2.5 ng/mL), 4490 nM; with NK-YS (IL-2 2.5 ng/mL), 5880 nM. Also, the “relative IC50” value with NKL (IL-2 2.5 ng/mL) is 3200 nM; in the experiment with SNK-6 (IL-2 2.5 ng/mL) it was 6050 nM; in the experiment with YT (IL-2 2.5 ng/mL), 6110 nM; in experiment [1], 5660 nM; in experiment [2], 3480 nM; in experiment [3], 5660 nM. Moreover, the “relative IC50” value in experiment [4] turned out to be 8100 nM.
As for `COC[C@H](NC(=O)c1cnc(C)s1)C(=O)N[C@@H](COC)C(=O)N[C@@H](Cc1ccccc1)C(=O)[C@@]1(C)CO1` [Oprozomib], the “relative IC50” value in the experiment with DERL-7 (IL-2 2.5 ng/mL) worked out at 10.5 nM; in the experiment on IMC-1 (IL-2 20 ng/mL), 76.8 nM; in the experiment on KAI3 (IL-2 2.5 ng/mL) it was 24.1 nM; in the experiment with KHYG-1 (IL-2 2.5 ng/mL), 48 nM; with NK-92 (IL-2 2.5 ng/mL), 32.4 nM; in the experiment on NK-YS (IL-2 2.5 ng/mL), 27.7 nM. Besides, the “relative IC50” value in the experiment with NKL (IL-2 2.5 ng/mL) was found to be 52.5 nM; in the experiment on SNK-6 (IL-2 2.5 ng/mL), 50.1 nM; with YT (IL-2 2.5 ng/mL), 49.1 nM; in [1] it was 34.7 nM; in experiment [2] it was 19.2 nM; in experiment [3], 17.9 nM. Moreover, the “relative IC50” value in experiment [4] stood at 24.8 nM.
Consider `CC(C)[C@H](C(=O)Nc1ccc(C(=O)NO)cc1)c1ccccc1` [AR-42], for which the “relative IC50” value in the experiment on DERL-7 (IL-2 2.5 ng/mL) worked out at 331 nM; with IMC-1 (IL-2 20 ng/mL), 289 nM; in the experiment with KAI3 (IL-2 2.5 ng/mL) it was 77.2 nM; with KHYG-1 (IL-2 2.5 ng/mL), 240 nM; in the experiment with NK-92 (IL-2 2.5 ng/mL), 129 nM; in the experiment on NK-YS (IL-2 2.5 ng/mL), 540 nM. For the same molecule, the “relative IC50” value in the experiment on NKL (IL-2 2.5 ng/mL) was 219 nM; in the experiment with SNK-6 (IL-2 2.5 ng/mL) it was 241 nM; in the experiment with YT (IL-2 2.5 ng/mL), 527 nM; in [1], 367 nM; in experiment [2], 297 nM; in experiment [3], 430 nM. In experiment [4], the “relative IC50” value worked out at 527 nM.
As for `CO[C@H](C(=O)[C@@H](O)[C@@H](C)O)[C@@H]1Cc2cc3cc(O[C@H]4C[C@@H](O[C@@H]5C[C@@H](O)[C@H](O)[C@@H](C)O5)[C@H](O)[C@@H](C)O4)c(C)c(O)c3c(O)c2C(=O)[C@H]1O[C@H]1C[C@@H](O[C@@H]2C[C@@H](O)[C@@H](O[C@@H]3C[C@](C)(O)[C@H](O)[C@@H](C)O3)[C@@H](C)O2)[C@H](O)[C@@H](C)O1` [Plicamycin], the “relative IC50” value was determined as 48.2 nM with DERL-7 (IL-2 2.5 ng/mL); 730 nM in the experiment on IMC-1 (IL-2 20 ng/mL); 84.1 nM in the experiment with KAI3 (IL-2 2.5 ng/mL); 44.7 nM in the experiment with KHYG-1 (IL-2 2.5 ng/mL); 220 nM in the experiment with NK-92 (IL-2 2.5 ng/mL); 27.7 nM with NK-YS (IL-2 2.5 ng/mL). Besides, the “relative IC50” value in the experiment on NKL (IL-2 2.5 ng/mL) was 37.9 nM; in the experiment on SNK-6 (IL-2 2.5 ng/mL), 11.7 nM; with YT (IL-2 2.5 ng/mL) it was 31.6 nM; in [1], 136 nM; in [2], 135 nM; in experiment [3] it was 692 nM. In [4], the “relative IC50” value is 785 nM.
As to `O=C(CCCCCCNC(=O)c1cnc(N(c2ccccc2)c2ccccc2)nc1)NO` [Rocilinostat], the “relative IC50” value in the experiment with DERL-7 (IL-2 2.5 ng/mL) amounted to 1990 nM; in the experiment with IMC-1 (IL-2 20 ng/mL) it was 2490 nM; with KAI3 (IL-2 2.5 ng/mL), 823 nM; in the experiment with KHYG-1 (IL-2 2.5 ng/mL) it was 1050 nM; in the experiment with NK-92 (IL-2 2.5 ng/mL), 1210 nM; with NK-YS (IL-2 2.5 ng/mL), 1620 nM. The “relative IC50” value in the experiment on NKL (IL-2 2.5 ng/mL) is 814 nM; in the experiment on SNK-6 (IL-2 2.5 ng/mL) it was 1350 nM; in the experiment on YT (IL-2 2.5 ng/mL) it was 1810 nM; in experiment [1], 1100 nM; in [2], 485 nM; in experiment [3], 1550 nM. For the same molecule, the “relative IC50” value in [4] came out at 2470 nM.

(Values after the supplement of paper PMC5908809.)
